Test results as given in patent US8952024B2, “Herbicidal pyrimidone derivatives” (E I du Pont de Nemours and Company, priority 2009, dated 2015).

Key:
Test in all cases: Test C plant response
Assay type in all cases: in vivo
Conditions in all cases: Preemergence, scale 0 to 100
[1] = tested on: bluegrass (annual bluegrass, Poa annua)
[2] = tested on: bromegrass (downy bromegrass, Bromus tectorum)
[3] = tested on: field poppy (Papaver rhoeas)

With `Cc1ccccc1-n1c(-c2ccccc2)ncc(C(=O)C2=C(O)CCCC2=O)c1=O` [Compound 12] the “Plant response rating: Bluegrass” value ([1]; 62 g ai/ha) was 20, the “Plant response rating: Bluegrass” value ([1]; 125 g ai/ha) was 35 and the “Plant response rating: Bluegrass” value ([1]; 16 g ai/ha) was 0. For the same compound, the “Plant response rating: Bluegrass” value ([1]; 31 g ai/ha) was 0, the “Plant response rating: Bromegrass, Downy” value ([2]; 62 g ai/ha) was 0 and the “Plant response rating: Bromegrass, Downy” value ([2]; 125 g ai/ha) was 0. For the same compound, the “Plant response rating: Bromegrass, Downy” value ([2]; 16 g ai/ha) was 0, the “Plant response rating: Bromegrass, Downy” value ([2]; 31 g ai/ha) was 0 and the “Plant response rating: Field Poppy” value ([3]; 62 g ai/ha) was 98. The “Plant response rating: Field Poppy” value ([3]; 125 g ai/ha) was 98, the “Plant response rating: Field Poppy” value ([3]; 16 g ai/ha) was 50 and the “Plant response rating: Field Poppy” value ([3]; 31 g ai/ha) was 80.
